The source of these data is paper PMC8071423, “A New Pyrimidine Schiff Base with Selective Activities against Enterococcus faecalis and Gastric Adenocarcinoma” (Molecules, 2021).

pIC50: −log10 of the molar value. ≈ marks a conversion by molar mass, not a printed value. Like-named read-outs stand apart in the source and are kept apart here.

The subject of one assay is HepaRG. The assay can be described thus: Neutral red uptake assay, HepaRG. The class given is cell-based. As to conditions: Homo sapiens, 72 h exposure. The procedure: (§1) L-929 (mouse C3H/An connective tissue), Caco-2 (human colon adenocarcinoma), A172 (human glioblastoma), AGS (human gastric adenocarcinoma), HepaRG (human hepatoma cell), and HeLa (human cervix epithelioid carcinoma) cell lines were obtained from the European Collection of Authenticated Cell Cultures (ECACC) and provided by Sigma Aldrich/Merck (Munich, Germany). All cell lines were cultured in complete mediums prepared according to the ECACC recommendations and incubated in a humidified atmosphere with 5% CO2 at 37 °C. Neutral red uptake assay was performed according to the protocol. 24 h before treatment cells were seeded in 96-well plates in 1 × 10^5 cell/mL of complete medium. After incubation and attachment of cells, the medium was discarded, and test substances dissolved in the fresh medium were added to wells. Samples were tested after 24, 48, and 72 h incubation. A neutral red working solution (40 µg/mL) was prepared and incubated overnight. […] Absorption was measured using a Thermo Scientific™ (Waltham, MA, USA) Multiskan™ GO microplate spectrophotometer at 540 nm. […] Viability was calculated according to the following formula:(1) % Viability=ODtest substance−ODblind/ODnegative control−ODblind×100 Neutral red uptake assay was performed in quadruple (n = 4). Results were calculated to mean ± standard deviation (SD) using Microsoft Office Excel 2007. […]

Another assay has as its system AGS. The experiment in a line: Neutral red uptake assay, AGS. Type of assay: cell-based. Particulars: Homo sapiens, 72 h exposure. As for the experimental part:
as §1

The subject of another assay is HeLa. The assay can be described thus: Neutral red uptake assay, HeLa. Type of assay: cell-based. As to conditions: Homo sapiens, 72 h exposure. The procedure:
as §1

Another assay relates to AGS cell line. The assay can be described thus: Microscopic observation of cell and nucleus morphology, Hoechst 33342. Particulars: 50 µM, 72 h. Type of assay: cell-based, human. The procedure:
Morphological changes and DNA fragmentation were examined with an Olympus IX53 inverted fluorescence microscope after staining with Hoechst 33342 according to the manufacturer’s recommendations Thermo Scientific (Waltham, MA, USA). Briefly, cells were seeded in 12-well plates with a density of 1 × 10^5 cell/mL. After overnight incubation, the test substance was added in a half-maximal inhibitory (IC50) concentration and incubated for 24, 48, and 72 h. Before microscopic observation, both adherent and floating cells were collected, centrifuged, resuspended in PBS containing 1 µg/mL Hoechst 33342 dye. After 10 min incubation in the dark, the morphology of cells and DNA were visualized using a contrast phase and a UV filter.

For assay [1], the system named is Enterococcus faecalis ATCC 29212. The experiment in a line: Antimicrobial microdilution / modified Richards method. Type of assay: cell-based. As to conditions: range tested 1024 to 1 ug/mL. For orientation: Dilution methods test growth across graded concentrations, often in twofold steps.
Where [2] appears, read: Enterococcus faecalis ATCC 29212.

For the molecule `CCOc1ccc(N=Cc2c(C)nc(-c3ccccc3)nc2Nc2ccc(F)cc2)cc1` [Compound 3, 5-[(4-ethoxyphenyl)imino]methyl-N-(4-fluorophenyl)-6-methyl-2-phenylpyrimidin-4-amine], the pIC50 in the assay with HepaRG is 3.50; with AGS it was 4.30; in the assay with HeLa, 3.45. Further, the “cell and nucleus morphology” value with AGS cell line is “broke apart into apoptotic bodies”. For the same molecule, the MBC worked out at 32 mg/L (≈ 75 µM) in assay [1] (setting [2]) and 16 mg/L (≈ 37.5 µM) in assay [1] (Enterococcus faecalis, ATCC29212, Enterococcus faecalis ATCC 29212, read-out: MBC). In addition, the MIC in assay [1] (setting [2]) was found to be 16 mg/L (≈ 37.5 µM); in assay [1] (Enterococcus faecalis, ATCC29212, Enterococcus faecalis ATCC 29212, read-out: MIC), 32 mg/L (≈ 75 µM).

What is called pIC50 is the IC50 on a negative log10 scale, so that one unit is a factor of ten. A high value points to a low IC50. As a reminder, the MBC is the smallest concentration meeting the test's criterion for killing. In general, MIC refers to the smallest concentration in the dilution series that meets the test's criterion for growth inhibition.
